Consider five compounds from US11649208B2, “Compounds and methods for treating alcohol disorder” (SOPHROSYNE PHARMACEUTICALS LIMITED, priority 2021, dated 2023).

Values after ≈ are worked out from the molar mass of the structure shown. Where two headings read alike, the source gives them in different places. Some results are limits rather than exact numbers.

The target in data set [1] is T1, liver ALDH2 (Rattus norvegicus, UniProt P11884).
T1 construct: from tissue; host or cells: liver (left lateral lobe) lysate of Sprague Dawley (CD-IGS) rats
T1 sequence (P11884 20-519): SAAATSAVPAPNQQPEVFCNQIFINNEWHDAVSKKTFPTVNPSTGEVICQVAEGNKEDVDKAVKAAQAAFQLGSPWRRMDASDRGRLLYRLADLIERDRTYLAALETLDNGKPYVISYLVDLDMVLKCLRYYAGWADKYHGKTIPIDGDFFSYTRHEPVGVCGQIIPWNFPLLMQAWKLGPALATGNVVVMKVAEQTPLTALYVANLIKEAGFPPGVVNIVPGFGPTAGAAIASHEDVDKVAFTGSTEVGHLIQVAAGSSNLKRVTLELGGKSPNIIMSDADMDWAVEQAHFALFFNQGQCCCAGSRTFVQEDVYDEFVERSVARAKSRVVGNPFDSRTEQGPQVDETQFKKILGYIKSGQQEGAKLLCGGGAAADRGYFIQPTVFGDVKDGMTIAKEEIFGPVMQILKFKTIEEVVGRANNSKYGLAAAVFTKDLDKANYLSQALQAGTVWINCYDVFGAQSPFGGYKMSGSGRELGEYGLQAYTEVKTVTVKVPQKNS
Briefly: In vivo ALDH2 enzymatic activity assay, ethanol challenge (Example 2). Also noted: species or system rats (Sprague Dawley). The procedure:
Sixty (60) male and sixty (60) female Sprague Dawley (CD-IGS) were obtained from Charles River Laboratories. All animals were housed under controlled conditions of temperature (72±8° F.), relative humidity (30-70%) and a 12-hour light-dark cycle (light from 6:00 AM to 6:00 PM). All animals were allowed free access to standard rodent chow (PicoLab Rodent Diet 20) and water (reverse osmosis, 0.2 μM filtered). Animals had at least a 3-day acclimation period prior to study.
Example 1-2 was synthesized by PharmAgra Labs, Lot #489PAL97; and stored at 4° C. and protected from light upon receipt. Example 1-2 dosing solutions were prepared by dissolving in PBS (pH 7.0) and thoroughly mixing via vortexing and sonication.
Example 1-15 was synthesized by PharmAgra Labs, Lot #505PAL17; and stored at 4° C. and protected from light upon receipt. Example 1-15 dosing solution was prepared by dissolving in PBS (pH 7.0) and thoroughly mixing via vortexing and sonication. The dosing formulation at concentration of 20 mg/mL was a clear solution.
Body weights of the animals in Groups 1-4 were obtained on Day 1. Body weights of the animals in Groups 5-8 were obtained on Days 1-3 respectively. Body weights of the animals in Groups 9-13 were obtained on Days 1, 4 and 5 respectively.
(§1) Animals were respectively administered vehicle and Example 1-2 at dosages of 2, 6.5 or 12 mg/kg via tail vein injection, once daily for 1 day (Groups 1-4), once daily for 3 days (Groups 5-8), or once daily for 5 days (Groups 9-12). For Group 13, animals were administered 20 mg/kg (on Day 1) or 12 mg/kg (on Days 2-5) dose via tail vein injection, once daily for 5 days. In some studies, the animals were administered a compound described herein for 10 days. In some studies, the animals were administered a compound described herein for 12 days. In some studies, the study was carried out with administered the compounds described herein including Example 1-2 racemate, Example 1-2A, Example 1-21B, Example 1-11 racemate, Example 1-11A, and/or Example 1-11B at a dosage of about 0.5, 1, 2, 4, and 8 mg.
Dosing volume (1 or 0.6 mL/kg) was calculated based on the body weight of the individual animal obtained on Day 1 (all groups), Days 2-3 (Groups 5-8), and Days 4-5 (Groups 9-13).
Ethanol (200PRF or 100% pure, non-denatured and no additives) was obtained from Fisher Scientific. The ethanol dosing solution was prepared fresh for each use. One (1) mL of ethanol was added to four (4) mL of saline (0.9% NaCl) in a glass vial and mixed by vortexing to create a uniform solution prior to administration. Animals were administered 20% ethanol at 1 g/kg (IP) 8 hours following the last dose of test article. Thirty (30) minutes following ethanol challenge, animals were euthanized with CO2. About 7 mL of whole blood was rapidly collected via vena cava for generation of serum samples for assays (Acetaldehyde assay by GPL and ALDH2 activity and protein assay by Eurofins). Blood samples were placed into serum separator tubes and maintained at room temperature for at least 30 minutes to allow clot formation prior to processing.
The left lateral lobe of liver was harvested and rinsed in cold saline to render a sample that was snap frozen in liquid nitrogen. Samples were stored at −80° C. until shipment. […]
The obtained serum samples as described herein were measured in singlicate for Acetaldehyde concentration using the Acetaldehyde Colorimetric Assay Kit (BioAssay Systems, #EACT-100), in accordance with manufacturer's instructions. […]

The target in data set [2] is T1, liver ALDH2. Briefly: In vivo ALDH2 enzymatic activity assay with disulfiram comparison, ethanol challenge (Example 3). The note with it: for statistical significance of ALDH2 inhibitions: 2 mg/kg, 6.5 mg/kg and 12 mg/kg IV QD; for dose-activity response of ALDH2 inhibition: 2, 6.5, 12 mg/kg IV QD 3 days; for onset of inhibition of ALDH2 activity: after only 3-day administration; for ALDH2 inhibition versus Disulfiram at 3.57 mg/kg/day PO: after three days at 2 mg/kg/day IV. Further details: species or system rats (Sprague Dawley). How it is done: Eighty-eight (88) male Sprague Dawley (CD-IGS) were obtained from Charles River Laboratories. All animals were housed under controlled conditions of temperature (72±8° F.), relative humidity (30-70%) and a 12-hour light-dark cycle (light from 6:00 AM to 6:00 PM). All animals were allowed free access to standard rodent chow (PicoLab Rodent Diet 20) and water (reverse osmosis, 0.2 μM filtered). Animals had at least a 3-day acclimation period prior to study.
30 mL disulfiram formulation were prepared. 64.2 mg of disulfiram was completely dissolved in 6 mL of DMSO to render a mixture. 0.3 mL of Tween 80 was then slowly added to the mixture. To the resulting mixture, 23.7 mL of PBS (1×, pH 5.0) was slowly added while stirring to render a dosing formulation. The dosing formulation was a fine suspension at concentration of 2.14 mg/mL. The final concentrations for DMSO and […] were 20% v/v and 1% v/v, respectively.
The dosing formulations of Example 1-4A, Example 1-4B3, and Example 1-2 and difulfiram were prepared with PBS (pH 7.0) by thoroughly mixing via vortexing and sonication.
Ethanol challenge study design and dosing groups of Example 1-4A, Example 1-48, and Example 1-2 and difulfiram are as shown in Table 3.
Animals in Group 1 was administered vehicle (PBS) via tail vein injection, once daily for 3 days. Animals in Group 2 was administered vehicle (PBS) disulfiram at 3.57 mg/kg via oral gavage (PO) once daily for 3 days. Animals in Groups 3-11 were respectively administered Example 1-4A at 2, 6.5, and 12 mg/kg, Example 1-4B at 2, 6.5, and 12 mg/kg, or Example 1-2 at 2, 6.5, and 12 mg/kg via tail vein injection, once daily for 3 days.
Dosing volume (1 or 1.67 mL/kg) was calculated based on the individual body weight obtained prior to the first dose of test article.
Ethanol (200PRF or 100% pure, non-denatured and no additives) was obtained from Fisher Scientific. Ethanol dosing solution (20% v/v in saline) was prepared by mixing one (1) part of ethanol and four (4) part of saline (0.9% NaCl) thoroughly to create a uniform solution prior to administration. Animals was administered 20% ethanol at 1 g/kg (IP) 8 hours following the third dose of test article. Thirty (30) minutes following ethanol challenge, animals were euthanized with CO2. About 2 mL of whole blood was rapidly collected via vena cava for generation of plasma samples. Blood samples were placed into K2 EDTA tubes and kept on wet ice prior to processing. Liver lysate generation, protein concentration determination, and ALDH2 activity assay were performed by Confluence Discovery Technologies (CDT). Protein concentrations were determined using the Pierce BCA Protein Assay Kit. ALDH2 Activity Assay using the Abcam assay kit #ab115348.

The target of data set [3] is T1, liver ALDH2. The data set is described as above. Further details: species or system rats (Sprague Dawley). The following applies: 2 mg/kg, 6.5 mg/kg and 12 mg/kg IV QD; printed 'after 5 days'.
Data set [4] has as its target T1, liver ALDH2. Kind of data set: 10-day rat Pharmacology study, liver ALDH2 activity following ethanol challenge. The data set is classed as in vivo. How it is done: as §1
Ethanol (200PRF or 100% pure, non-denatured and no additives) was obtained from Fisher Scientific. The ethanol dosing solution was prepared fresh for each use. One (1) mL of ethanol was added to four (4) mL of saline (0.9% NaCl) in a glass vial and mixed by vortexing to create a uniform solution prior to administration. Animals were administered 20% ethanol at 1 g/kg (IP) 8 hours following the last dose of test article. Thirty (30) minutes following ethanol challenge, animals were euthanized with CO2. […]

Data set [5] in a line: Solubility in CHCl3, DCM and DMSO by SFC/UV. It is filed as physicochemical. The note with it: organic solvent or mixture, thermodynamic from solid, room temperature. How it is done:
The solubility in chloroform (CHCl3), dichloromethane (DCM) and dimethyl sulfoxide (DMSO) was determined at room temperature up to 50 mg/mL by measuring the concentrations of the solutions using SFC/UV. […] 200 mg Example 1-11B was weighed individually into three separate vials. 4 mL DMSO, 6 mL CHCl3 and 6 mL DCM were pipetted into the three vials containing Example 1-11B. The solutions were mixed and sonicated for 10 minutes. The DMSO solution was clear, and an aliquot was taken and diluted 100 times using MeOH before being subjected to SFC analysis. The saturated CHCl3 and DCM solutions were centrifuged, and the clear solution was diluted 100 times using MeOH before being subjected to SFC analysis:
Solubility measurement of up to 50 mg/mL in DMSO, CHCl3 and DCM was requested. […] At 50 mg/mL, Example 1-11B was not completely dissolved in CHCl3 or DCM solutions. After mixing and sonication, a clear aliquot of each solution was taken, and the concentrations of Example 1-11B in CHCl3 and DCM were measured by SFC/UV using the DMSO solution as a reference.

Consider `CCN(CC)C(=O)[S+](C)[O-]` (racemic) [Example 1-2, N,N-diethyl-1-(methylsulfinyl)methanamide], for which the “ALDH2 inhibition after one (1) day administration” value on liver ALDH2 [1] (6.5 mg/kg and 12 mg/kg IV, 1 day) is recorded as “statistically significant ALDH2 inhibitions were observed”. The “dose response and treatment-duration response in inhibiting ALDH2 activities” value on liver ALDH2 [1] (2, 6.5 or 12 mg/kg tail vein injection QD for 1, 3 or 5 days, ethanol 1 g/kg IP 8 h after last dose) is “A dose response and a treatment-duration response were observed”. In addition, the “ALDH2 inhibition, treatment for 3 and 5 days” value on liver ALDH2 [1] (all doses (2, 6.5, 12 mg/kg) IV QD for 3 and 5 days) was “statistically significant ALDH2 inhibitions at all doses”. The “inhibition of liver ALDH2 activity (FIGS. 2 and 3)” value against liver ALDH2 [1] (dosages of 2 mg/kg, 6.5 mg/kg and 12 mg/kg IV QD) is “statistically significant effectiveness in inhibiting liver ALDH2 activity”. On liver ALDH2 [2], the “statistical significance of ALDH2 inhibitions” value is “statistically significant”, the “dose-activity response of ALDH2 inhibition” value is “A dose-activity response was observed”, the “onset of inhibition of ALDH2 activity” value is recorded as “fast activity onset” and the “ALDH2 inhibition versus Disulfiram at 3.57 mg/kg/day PO” value is “greater inhibition”. In addition, on liver ALDH2 [3], the “ALDH2 inhibition (FIG. 7)” value was “showed ALDH2 inhibitions”.
For the compound `C[S+]([O-])C(=O)N1CCC(O)CC1` (racemic) [Example 1-11, (4-hydroxypiperidin-1-yl)(methylsulfinyl)methanone], the “ALDH2 inhibition versus pure enantiomer Example 1-11A (FIG. 12)” value at liver ALDH2 [4] (10 day administration at 2, 4 and 8 mg/kg, material with 66 wt % of Example 1-11B) is recorded as “greater ALDH2 inhibition than the pure enantiomer Example 1-11A”.
Turning to `CCN(CC)C(=O)[S@+](C)[O-]` (single isomer, unassigned; peak-1) [Example 1-2A, (S )-N, N-diethyl-1 - (methylsulfinyl)methanamide (Peak-1)], the “ALDH2 inhibition, enantiomer versus other enantiomer (FIG. 12)” value at liver ALDH2 [4] (10-day administration at 0.5, 1 and 2 mg/kg) is “greater ALDH2 inhibition compared the other enantiomer Example 1-2B”.
Take `CCN(CC)C(=O)[S+]([O-])CC1CC1` (single isomer, unassigned; peak-2) [Example 1-4B, 1-((cyclopropylmethyl)sulfinyl)-N,N-diethylmethanamide (Peak-2)]: on liver ALDH2 [2], the “statistical significance of ALDH2 inhibitions” value is reported as “statistically significant”, the “dose-activity response of ALDH2 inhibition” value was “A dose-activity response was observed”, the “onset of inhibition of ALDH2 activity” value was “fast activity onset” and the “ALDH2 inhibition versus Disulfiram at 3.57 mg/kg/day PO” value is on record as “greater inhibition”. The “ALDH2 inhibition (FIG. 7)” value on liver ALDH2 [3] is given as “showed ALDH2 inhibitions”.
`C[S@+]([O-])C(=O)N1CCC(O)CC1` [Example 1-11B, (S)-(4-hydroxypiperidin-1-yl)(methylsulfinyl)methanone]: the solubility at 10 min in data set [5] (chloroform (CHCl3), SFC/UV, read-out: solubility in CHCl3) is 12.4 mg/mL (≈ 64.8 mM); in data set [5] (dichloromethane (DCM), SFC/UV, read-out: solubility in DCM), 12.3 mg/mL (≈ 64.3 mM); in data set [5] (dimethyl sulfoxide (DMSO), tested up to 50 mg/mL, read-out: solubility in DMSO), above 50 mg/mL.
